Data on two compounds can be found in patent US6872713B1, “Antiprotozoal saponins” (Janssen Pharmaceutica N.V., priority 1999, dated 2005).

Values after ≈ are worked out from the molar mass of the structure shown.

The test system of test [1] is L. donovani. The experiment in a line: In vitro antileishmanial activity in primary mouse macrophages, L. donovani. The format is cell-based. Particulars: Leishmania donovani, Macrophage, L. donovani (visceral). The protocol: (§1) Methods for the in vitro growth of Leishmania organisms and screening methodology are well documented in the international literature. Testing protocols are flexible and may be adapted according to the specific objectives and the characteristics of the test compounds. Briefly, the following in vitro methodology has been used: Primary peritoneal macrophages derived from laboratory rodents or macrophage cell lines were seeded in multiwell tissue culture vessels and allowed to attach for about 24 hours. Amastigotes of the Leishmania species (obtained from target tissues of an infected donor animal or from amastigote-infected tissue cultures) or promastigotes of the Leishmania species were added at an appropriate infection ratio together with varying serially diluted concentrations of the drug or test compound. […] Treatment of uninfected control cultures was also included in order to determine a selectivity index. Reference drug treated cultures were included as well so as to determine the relative potency of the test drug. Drug activity was determined in stained preparations as the percentage reduction of the total parasite load or the number of infected macrophages compared to the untreated control cultures.

In another test the test system is L. infantum. The experiment in a line: In vitro antileishmanial activity in macrophages, L. infantum. The format is cell-based. Conditions: Leishmania infantum, Macrophage; L. infantum (visceral), primary mouse macrophages. On the procedure:
as §1

For test [2], the system named is L. major. As to the kind of experiment: In vivo skin lesion model, L. major (prophylactic and curative). Details: species or system mice and hamsters. Particulars: L. major proph., 10 mg/kg. The text has this:
(§2) Methods for in vivo maintenance of Leishmania organisms and animals models are well documented in the international literature. Balb-C mice and golden hamsters are the preferred laboratory animal species for primary isolation, maintenance and use in artificial infection models. Testing protocols are flexible and may be adapted according to the specific objectives and characteristics of the test compounds. Briefly, the following in vivo methodologies have been used:
(§3) For cutaneous and mucocutaneous Leishmania species:Balb-C mice or young hamsters were infected intradermally or subcutaneously with about 10^6 to 10^7 amastigotes derived from the target organs (generally skin lesion) of an infected donor animal or from an in vitro culture of parasite forms. The animals were treated with the test compound at different dose levels (mg/kg in 100% DMSO or any other acceptable vehicle), using different routes of administration and treatment schedules. Initiation of treatment was either before infection (prophylactically) or at different times after infection (curatively). In the prophylactic study design, the first administration of the test drug is given immediately before or together with the artificial infection with the Leishmania species. In the curative study design, the first administration of the test drug is given several weeks after the artificial infection with the Leishmania species (early curative=when the first dermal lesions appear; late curative=when dermal lesions are well established or become chronic). Drug activity was evaluated either by determination of the severity of the lesion in the relevant target tissue/organ (primary parameter) or of the parasite burdens in the relevant target tissue/organ (secondary parameter), compared to untreated control animals. The lesion size was assessed quantitatively using the method of J. El-On. and A. D. Hamburger [Trans. Roy. Soc. Trop. Med. Hyg., 81, 734-737 (1987)]. The percentage reduction serves as an indication for antileishmanial activity and provides significant leads for clinically useful agents. The lowest active dose (LAD) is defined as the lowest dose which prevents lesions to develop, stops further evolution of the lesions or induces a clinical cure of the lesions in the primary target organ or tissue.

Test [3] deals with L. major. The experiment in a line: Lowest active dose regimen in Balb-C mice, L. major. The format is in vivo. Conditions: L. major prophylactic; no regimen given.
From the text: as §2
(§4) For cutaneous and mucocutaneous Leishmania species:Balb-C mice or young hamsters were infected intradermally or subcutaneously with about 10^6 to 10^7 amastigotes derived from the target organs (generally skin lesion) of an infected donor animal or from an in vitro culture of parasite forms. The animals were treated with the test compound at different dose levels (mg/kg in 100% DMSO or any other acceptable vehicle), using different routes of administration and treatment schedules. […] Drug activity was evaluated either by determination of the severity of the lesion in the relevant target tissue/organ (primary parameter) or of the parasite burdens in the relevant target tissue/organ (secondary parameter), compared to untreated control animals. The lesion size was assessed quantitatively using the method of J. El-On. and A. D. Hamburger [Trans. […]

For test [4], the system named is L. mexicana. The experiment in a line: In vivo skin lesion model, L. mexicana (prophylactic and curative). Also noted: species or system mice and hamsters. Conditions: L. mexicana proph., 10 mg/kg.
From the text: as §2, §3

Test [5] relates to L. mexicana. As to the kind of experiment: In vitro antileishmanial activity in primary mouse macrophages, L. mexicana. Type of test: cell-based. Conditions: Leishmania mexicana, Macrophage, L. mexicana (cutaneous). On the procedure: as §1
Test [6] relates to L. donovani. As to the kind of experiment: Lowest active dose regimen in Balb-C mice, L. donovani. The format is in vivo. Conditions: no regimen given.
From the text: as §2
For visceral Leishmania species: Balb-C mice or young hamsters were intravenously infected with about 10^6 to 10^7 amastigotes derived from the target organs (generally spleen) of an infected donor animal or from an in vitro culture of parasite forms. The animals were treated with the test compound at different dose levels (dose range: 0.1 to 80 mg/kg in 100% DMSO or any other acceptable vehicle), using different routes of administration and treatment schedules. Initiation of treatment was either at different times after infection (curatively), concomitant with infection (prophylactically) or before infection (residual activity). In the prophylactic study design, the first administration of the test drug is given immediately before or together with the artificial infection with the Leishmania species. In the curative study design, the first administration of the test drug is given several weeks after the artificial infection with the Leishmania species (early curative=when the first clinical signs appear; late curative=when the clinical symptoms are well established or become chronic). Drug activity was evaluated by determination of the total parasite burdens in the liver or any other relevant target tissue/organ, compared to the tissue/organ burdens in untreated control animals. The mean number of amastigotes is enumerated quantitatively or semi-quantitatively on stained impression smears or slides. The percentage reduction serves as an indication for antileishmanial activity and provides significant leads for clinically useful agents. […]

The test system of test [7] is L. panamensis. The experiment in a line: Lowest active dose regimen in Balb-C mice, L. panamensis. The format is in vivo. Conditions: L. panamensis prophylactic; no regimen given.
From the text: as §2, §4

In test [8] the test system is L. panamensis. As to the kind of experiment: In vivo skin lesion model, L. panamensis (prophylactic and curative). Particulars: L. panamensis proph., 10 mg/kg. Details: species or system mice and hamsters.
From the text: as §2, §3

The test system of another test is L mexicana. As to the kind of experiment: Lowest active dose regimen in Balb-C mice, L mexicana. The format is in vivo. Particulars: L mexicana prophylactic; no regimen given.
From the text: as §2, §4

The test system of test [9] is L. major. As to the kind of experiment: In vitro antileishmanial activity in primary mouse macrophages, L. major. The format is cell-based. Particulars: Leishmania major, Macrophage, L. major (cutaneous). On the procedure: as §1

`CCC(C)n1ncn(-c2ccc(N3CCN(c4ccc(OCC5COC(Cn6cncn6)(c6ccc(Cl)cc6Cl)O5)cc4)CC3)cc2)c1=O` (centres unmarked) [itraconazole]: the EC50 with L. donovani [1] and in the test on L. infantum was over 12.5 mg/L each time.
As to `C[C@@H]1[C@H](O)[C@@H](C)/C=C/C=C/C=C/C=C/C=C/C=C/C=C/[C@H](O[C@@H]2O[C@H](C)[C@@H](O)[C@H](N)[C@@H]2O)C[C@@H]2O[C@](O)(C[C@@H](O)C[C@@H](O)[C@H](O)CC[C@@H](O)C[C@@H](O)CC(=O)O[C@H]1C)C[C@H](O)[C@H]2C(=O)O` [Ampho-B, amphothericin-B], the skin lesion size in the test on L. major [2] (week 0 post infection) is 0 mm^2; in the test on L. major [2] (week 1 post infection), 0 mm^2; in the test with L. major [2] (week 2 post infection), 1 mm^2; with L. major [2] (week 3 post infection), 1 mm^2; in the test with L. major [2] (week 4 post infection), 12 mm^2; with L. major [2] (week 5 post infection) it was 31 mm^2. Besides, the skin lesion size in the test on L. major [2] (week 6 post infection) stood at 41 mm^2; in the test on L. major [2] (week 7 post infection) it was 57 mm^2; in the test on L. major [2] (week 8 post infection), 95 mm^2; in the test with L. mexicana [4] (week 0 post infection), 0 mm^2; in the test on L. mexicana [4] (week 1 post infection) it was 0 mm^2; in the test with L. mexicana [4] (week 2 post infection) it was 0 mm^2. The skin lesion size is on record as 0 mm^2 in the test on L. mexicana [4] (week 3 post infection); 0 mm^2 with L. mexicana [4] (week 4 post infection); 1 mm^2 in the test on L. mexicana [4] (week 5 post infection); 2 mm^2 with L. mexicana [4] (week 6 post infection); 7 mm^2 with L. mexicana [4] (week 7 post infection); 13 mm^2 with L. mexicana [4] (week 8 post infection). The skin lesion size with L. mexicana [4] (week 9 post infection) stood at 34 mm^2; in the test with L. mexicana [4] (week 10 post infection), 85 mm^2; in the test with L. mexicana [4] (week 11 post infection) it was 101 mm^2; in the test on L. mexicana [4] (week 12 post infection), 112 mm^2; in the test on L. panamensis [8] (week 0 post infection) it was 0 mm^2; with L. panamensis [8] (week 1 post infection), 0 mm^2. Also, the skin lesion size in the test on L. panamensis [8] (week 2 post infection) was 0 mm^2; in the test with L. panamensis [8] (week 3 post infection), 0 mm^2; in the test on L. panamensis [8] (week 4 post infection), 1 mm^2; with L. panamensis [8] (week 5 post infection), 9 mm^2; with L. panamensis [8] (week 6 post infection), 15 mm^2; in the test on L. panamensis [8] (week 7 post infection), 30 mm^2. Moreover, the skin lesion size with L. panamensis [8] (week 8 post infection) came to 30 mm^2; in the test on L. panamensis [8] (week 9 post infection) it was 42 mm^2; with L. panamensis [8] (week 10 post infection) it was 42 mm^2; in the test with L. panamensis [8] (week 11 post infection), 43 mm^2; in the test on L. panamensis [8] (week 12 post infection), 39 mm^2. Moreover, the EC50 (commonly the concentration that produces a half-maximal response) with L. donovani [1] stood at 0.1 mg/L (≈ 0.108 µM); with L. mexicana [5] it was 0.1 mg/L (≈ 0.108 µM); with L. major [9] it was 0.2 mg/L (≈ 0.216 µM); in the test with L. infantum, 0.1 mg/L (≈ 0.108 µM). For the same compound, the “Lowest active dose (LAD) regimen” value in the test with L. major [3], with L. donovani [6] (L. donovani curative early), in the test on L. donovani [6] (L. donovani prophylactic), in the test on L. panamensis [7] and in the test with L mexicana was “not effective” in each case. Further, in the test on L. donovani [6] (L. donovani), the residual activity result is reported as “not effective”.
